± gives the expanded uncertainty stated by the source.
Experiment: refractive index (Na D-line) (dimensionless)
Conditions: 298.15 K; 101.33 kPa; Liquid; Standard Abbe refractometry

Question: With CCCCCCCCCCO [decan-1-ol] as the compound, how does the refractive index read?
Answer: 1.43436 ± 0.00033

Question: For CCCCCCCCCCCCO [dodecan-1-ol], which refractive index is on record?
Answer: 1.44058 ± 0.00033

Question: For CCCCCCO [hexan-1-ol], which refractive index is on record?
Answer: 1.4158 ± 0.00033

Question: For CCCCCCCCCO [nonan-1-ol], which refractive index is on record?
Answer: 1.43084 ± 0.00033

Question: Which refractive index does the source give for CCCCCCCCO [octan-1-ol] here?
Answer: 1.42695 ± 0.00033

Question: Which refractive index does the source give for CCCCCO [pentan-1-ol] here?
Answer: 1.40703 ± 0.00033

Question: Which refractive index does the source give for CCCO [propan-1-ol] here?
Answer: 1.38305 ± 0.00033

Question: With O [water] as the compound, how does the refractive index read?
Answer: 1.33248 ± 0.00031

Source: the NIST ThermoML archive (doi:10.1021/je2002539)
